From patent US12065442B2, “Tropomyosin receptor kinase (TRK) degradation compounds and methods of use” (Cullgen (Shanghai), Inc., priority 2018, dated 2024) come the findings set out here.

The subject of the first experiment is KM12 cells. Put plainly: Cell viability assay (CellTiter-Glo) in KM12 cells. The experiment is classed as cell-based. As to conditions: Homo sapiens, 72 h; Table 2; KM12 cell viability, CellTiter-Glo, 3 days; read-out: IC50. For orientation: In ATP-based viability assays light output follows the ATP content of the culture.
For the compound `Cc1ncsc1-c1ccc(CNC(=O)[C@@H]2C[C@@H](O)CN2C(=O)[C@@H](NC(=O)CCCCCCCC(=O)N2CCN(c3cccc(-c4cnc5ccc(N6CCC[C@@H]6c6cccc(F)c6)nn45)n3)CC2)C(C)(C)C)cc1` [CPD-018, (2S,4R)-1-((S)-2-(9-(4-(6-(6-((R)-2-(3-Fluorophenyl)pyrrolidin-1-yl)imidazo[1,2-b]pyridazin-3-yl)pyridin-2-yl)piperazin-1-yl)-9-oxononanamido)-3,3-dimethylbutanoyl)-4-hydroxy-N-(4-(4-methylthiazol-5-yl)benzyl)pyrrolidine-2-carboxamide], the IC50 (as a rule, the concentration that gives 50% inhibition) was 258 nM.

In the case of `O=C(CN1CCN(c2ccc(C(=O)Nc3n[nH]c4ccc(Cc5cc(F)cc(F)c5)cc34)c(NC3CCOCC3)c2)CC1)NCCNc1cccc2c1C(=O)N(C1CCC(=O)NC1=O)C2=O` (centres unmarked) [CPD-062, N-(5-(3,5-difluorobenzyl)-1H-indazol-3-yl)-4-(4-(2-((2-((2-(2,6-dioxopiperidin-3-yl)-1,3-dioxoisoindolin-4-yl)amino)ethyl)amino)-2-oxoethyl)piperazin-1-yl)-2-((tetrahydro-2H-pyran-4-yl)amino)benzamide], the IC50 turned out to be 29 nM.

As for `Cc1ncsc1-c1ccc(CNC(=O)[C@@H]2C[C@@H](O)CN2C(=O)[C@@H](NC(=O)CCCCCCCC(=O)N2CCN(c3ccc(C(=O)Nc4n[nH]c5ccc(Cc6cc(F)cc(F)c6)cc45)c(NC4CCOCC4)c3)CC2)C(C)(C)C)cc1` [CPD-037, (2S,4R)-1-((S)-2-(9-(4-(4-((5-(3,5-Difluorobenzyl)-1H-indazol-3-yl)carbamoyl)-3-((tetrahydro-2H-pyran-4-yl)amino)phenyl)piperazin-1-yl)-9-oxononanamido)-3,3-dimethylbutanoyl)-4-hydroxy-N-(4-(4-methylthiazol-5-yl)benzyl)pyrrolidine-2-carboxamide], the IC50 was 150 nM.

With `O=C1CCC(N2C(=O)c3cccc(NCCOCCOCCC(=O)N4CCN(c5cccc(-c6cnc7ccc(N8CCC[C@@H]8c8cccc(F)c8)nn67)n5)CC4)c3C2=O)C(=O)N1` (stereo partly drawn) [CPD-028, 2-(2,6-Dioxopiperidin-3-yl)-4-((2-(2-(3-(4-(6-(6-((R)-2-(3-fluorophenyl)pyrrolidin-1-yl)imidazo[1,2-b]pyridazin-3-yl)pyridin-2-yl)piperazin-1-yl)-3-oxopropoxy)ethoxy)ethyl)amino)isoindoline-1,3-dione], the IC50 was 4.3 nM.

As to `O=C1CCC(N2C(=O)c3cccc(NCCC(=O)N4CCN(c5cccc(-c6cnc7ccc(N8CCC[C@@H]8c8cccc(F)c8)nn67)n5)CC4)c3C2=O)C(=O)N1` (stereo partly drawn) [CPD-026, 2-(2,6-Dioxopiperidin-3-yl)-4-((3-(4-(6-(6-((R)-2-(3-fluorophenyl)pyrrolidin-1-yl)imidazo[1,2-b]pyridazin-3-yl)pyridin-2-yl)piperazin-1-yl)-3-oxopropyl)amino)isoindoline-1,3-dione], the IC50 stood at 82.3 nM.

For the compound `O=C1CCC(N2C(=O)c3cccc(NCCCC(=O)N4CCN(c5cccc(-c6cnc7ccc(N8CCC[C@@H]8c8cccc(F)c8)nn67)n5)CC4)c3C2=O)C(=O)N1` (stereo partly drawn) [CPD-013, 2-(2,6-Dioxopiperidin-3-yl)-4-((4-(4-(6-(6-((R)-2-(3-fluorophenyl)pyrrolidin-1-yl)imidazo[1,2-b]pyridazin-3-yl)pyridin-2-yl)piperazin-1-yl)-4-oxobutyl)amino)isoindoline-1,3-dione], the IC50 was 10.2 nM.

The same experiment, now with this note: Homo sapiens, 72 h; Table 3; KM12 cell viability, CellTiter-Glo, 3 days; read-out: IC50.
In the case of `O=C1CCC(N2C(=O)c3ccc(C#CCN4CCN(c5cccc(-c6cnc7ccc(N8CCC[C@@H]8c8cccc(F)c8)nn67)n5)CC4)cc3C2=O)C(=O)N1` (stereo partly drawn) [TR-183, 2-(2,6-Dioxopiperidin-3-yl)-5-(3-(4-(6-(6-((R)-2-(3-fluorophenyl)pyrrolidin-1-yl)imidazo[1,2-b]pyridazin-3-yl)pyridin-2-yl)piperazin-1-yl)prop-1-yn-1-yl)isoindoline-1,3-dione], the IC50 was 129 nM.

Consider `O=C1CCC(N2C(=O)c3ccc(NCCOCCC(=O)N4CCN(c5ccc(C(=O)Nc6n[nH]c7ccc(Cc8cc(F)cc(F)c8)cc67)c(NC6CCOCC6)c5)CC4)cc3C2=O)C(=O)N1` (centres unmarked) [TR-143], for which the IC50 is 5.6 nM.

On to `O=C(CN1CCN(c2ccc(C(=O)Nc3n[nH]c4ccc(Cc5cc(F)cc(F)c5)cc34)c(NC3CCOCC3)c2)CC1)NCCCCCCCCNc1cccc2c1C(=O)N(C1CCC(=O)NC1=O)C2=O` (centres unmarked) [TR-148, N-(5-(3,5-Difluorobenzyl)-1H-indazol-3-yl)-4-(4-(2-((8-((2-(2,6-dioxopiperidin-3-yl)-1,3-dioxoisoindolin-4-yl)amino)octyl)amino)-2-oxoethyl)piperazin-1-yl)-2-((tetrahydro-2H-pyran-4-yl)amino)benzamide], for which the IC50 is 23.2 nM.

As to `O=C(CN1CCN(c2ccc(C(=O)Nc3n[nH]c4ccc(Cc5cc(F)cc(F)c5)cc34)c(NC3CCOCC3)c2)CC1)NCCOCCOCCNc1cccc2c1C(=O)N(C1CCC(=O)NC1=O)C2=O` (centres unmarked) [TR-153, N-(5-(3,5-Difluorobenzyl)-1H-indazol-3-yl)-4-(4-(2-((2-(2-(2-((2-(2,6-dioxopiperidin-3-yl)-1,3-dioxoisoindolin-4-yl)amino)ethoxy)ethoxy)ethyl)amino)-2-oxoethyl)piperazin-1-yl)-2-((tetrahydro-2H-pyran-4-yl)amino)benzamide], the IC50 was 6.3 nM.

For the compound `O=C1CCC(N2Cc3ccc(NCCN4CCN(c5cccc(-c6cnc7ccc(N8CCC[C@@H]8c8cccc(F)c8)nn67)n5)CC4)cc3C2=O)C(=O)N1` (stereo partly drawn) [TR-196, 3-(6-((2-(4-(6-(6-((R)-2-(3-fluorophenyl)pyrrolidin-1-yl)imidazo[1,2-b]pyridazin-3-yl)pyridin-2-yl)piperazin-1-yl)ethyl)amino)-1-oxoisoindolin-2-yl)piperidine-2,6-dione], the IC50 worked out at 3.1 nM.

For the compound `O=C1CCC(N2C(=O)c3ccc(NCCOCCOCCOCCOCCC(=O)N4CCN(c5cccc(-c6cnc7ccc(N8CCC[C@@H]8c8cccc(F)c8)nn67)n5)CC4)cc3C2=O)C(=O)N1` (stereo partly drawn) [TR-120, 2-(2,6-Dioxopiperidin-3-yl)-5-((15-(4-(6-(6-((R)-2-(3-fluorophenyl)pyrrolidin-1-yl)imidazo[1,2-b]pyridazin-3-yl)pyridin-2-yl)piperazin-1-yl)-15-oxo-3,6,9,12-tetraoxapentadecyl)amino)isoindoline-1,3-dione], the half-inhibitory concentration (IC50) was 10 nM.

Regarding `O=C1CCC(N2C(=O)c3ccc(NCC4CCN(c5cccc(-c6cnc7ccc(N8CCC[C@@H]8c8cccc(F)c8)nn67)n5)CC4)cc3C2=O)C(=O)N1` (stereo partly drawn) [TR-178, 2-(2,6-Dioxopiperidin-3-yl)-5-(((1-(6-(6-((R)-2-(3-fluorophenyl)pyrrolidin-1-yl)imidazo[1,2-b]pyridazin-3-yl)pyridin-2-yl)piperidin-4-yl)methyl)amino)isoindoline-1,3-dione], the IC50 was determined as 67.7 nM.

`O=C1CCC(N2C(=O)c3ccc(NCCC4CN(c5cccc(-c6cnc7ccc(N8CCC[C@@H]8c8cccc(F)c8)nn67)n5)C4)cc3C2=O)C(=O)N1` (stereo partly drawn) [TR-193, 2-(2,6-Dioxopiperidin-3-yl)-5-((2-(1-(6-(6-((R)-2-(3-fluorophenyl)pyrrolidin-1-yl)imidazo[1,2-b]pyridazin-3-yl)pyridin-2-yl)azetidin-3-yl)ethyl)amino)isoindoline-1,3-dione]: the IC50 is 1100 nM.

Turning to `O=C1CCC(N2C(=O)c3ccc(NCCCCCCC(=O)N4CCN(c5ccc(C(=O)Nc6n[nH]c7ccc(Cc8cc(F)cc(F)c8)cc67)c(NC6CCOCC6)c5)CC4)cc3C2=O)C(=O)N1` (centres unmarked) [TR-139, N-(5-(3,5-Difluorobenzyl)-1H-indazol-3-yl)-4-(4-(7-((2-(2,6-dioxopiperidin-3-yl)-1,3-dioxoisoindolin-5-yl)amino)heptanoyl)piperazin-1-yl)-2-((tetrahydro-2H-pyran-4-yl)amino)benzamide], the IC50 came to 27.1 nM.

The experiment is the same for the next values; noted with them: Homo sapiens, 72 h; Table 4; KM12 cell viability, CellTiter-Glo, 3 days; read-out: IC50.
With `Cn1c(=O)n(C2CCC(=O)NC2=O)c2cccc(CCCN3CCN(c4cccc(-c5cnc6ccc(N7CCC[C@@H]7c7cccc(F)c7)nn56)n4)CC3)c21` (stereo partly drawn) [TR-240, 3-(4-(3-(4-(6-(6-((R)-2-(3-fluorophenyl)pyrrolidin-1-yl)imidazo[1,2-b]pyridazin-3-yl)pyridin-2-yl)piperazin-1-yl)propyl)-3-methyl-2-oxo-2,3-dihydro-1H-benzo[d]imidazol-1-yl)piperidine-2,6-dione], the IC50 worked out at 16 nM.

As to `O=C1CCC(N2C(=O)c3ccc(CN4CC(N5CCN(c6cccc(-c7cnc8ccc(N9CCC[C@@H]9c9cccc(F)c9)nn78)n6)CC5)C4)cc3C2=O)C(=O)N1` (stereo partly drawn) [TR-237, 2-(2,6-dioxopiperidin-3-yl)-5-((3-(4-(6-(6-((R)-2-(3-fluorophenyl)pyrrolidin-1-yl)imidazo[1,2-b]pyridazin-3-yl)pyridin-2-yl)piperazin-1-yl)azetidin-1-yl)methyl)isoindoline-1,3-dione], the 50% inhibitory concentration (IC50) came out at 138 nM.

Turning to `O=C1CCC(N2C(=O)c3ccc(N4CCC(CN5CCN(c6cccc(-c7cnc8ccc(N9CCC[C@@H]9c9cccc(F)c9)nn78)n6)CC5)CC4)cc3C2=O)C(=O)N1` (stereo partly drawn) [TR-226, 2-(2,6-Dioxopiperidin-3-yl)-5-(4-((4-(6-(6-((R)-2-(3-fluorophenyl)pyrrolidin-1-yl)imidazo[1,2-b]pyridazin-3-yl)pyridin-2-yl)piperazin-1-yl)methyl)piperidin-1-yl)isoindoline-1,3-dione], the IC50 is 13.8 nM.

`O=C1CCC(N2C(=O)c3ccc(N4CC(CN5CCC(N6CCC=C(c7cnc8ccc(N9CCC[C@@H]9c9cccc(F)c9)nn78)C6)CC5)C4)cc3C2=O)C(=O)N1` (stereo partly drawn) [TR-230, 2-(2,6-Dioxopiperidin-3-yl)-5-(3-((4-(5-(6-((R)-2-(3-fluorophenyl)pyrrolidin-1-yl)imidazo[1,2-b]pyridazin-3-yl)-3,6-dihydropyridin-1(2H)-yl)piperidin-1-yl)methyl)azetidin-1-yl)isoindoline-1,3-dione]: the IC50 is more than 500 nM.

As for `O=C1CCC(N2Cc3cc(NCC4CCN(c5cccc(-c6cnc7ccc(N8CCC[C@@H]8c8cccc(F)c8)nn67)n5)CC4)ccc3C2=O)C(=O)N1` (stereo partly drawn) [TR-218, 3-(5-(((1-(6-(6-((R)-2-(3-Fluorophenyl)pyrrolidin-1-yl)imidazo[1,2-b]pyridazin-3-yl)pyridin-2-yl)piperidin-4-yl)methyl)amino)-1-oxoisoindolin-2-yl)piperidine-2,6-dione], the IC50 was 15.3 nM.
